Read-outs that look alike come from different tables or passages of the source.
Tests used:
[1] = tested on: amphetamine-induced hyper-locomotion; assay: Reduction of amphetamine-induced hyper-locomotion; type: in vivo, rat; settings: rats pretreated with d-amphetamine 1.5 mg/kg i.p., test compound s.c., last 45 minutes of one hour, range covers 95% of fits
Excerpt: In this model, dopaminergic neurotransmission is increased by systemic administration of d-amphetamine at a dose that is sufficiently high to produce a large increase in locomotor activity. The ability of a compound to antagonize this hyperactivity reflects anti-dopaminergic properties, which are part of the dopaminergic stabiliser profile.
Photobeam sensors were spaced 2.5 cm apart.
For most compounds, the evaluation is based on 16 amphetamine pre-treated animals over the dose range 0, 11, 33 and 100 μmol/kg s.c. in one single experiment, with complementary doses in separate experiments. Calculations are based on distance during the last 45 minutes of one hour of measurement. The distances are normalised to amphetamine-control and fitted by least square minimization to the function “End-(End-Control)/(1+(dose/ED50)^Slope)”. […] To estimate confidence levels for the parameters, the fit is repeated 100 times with a random evenly distributed squared weight (0 to 1) for every measurement value. Presented ED50-ranges cover 95% of these values.

[2] = type: in vitro ADME; settings: rat, microsomes, 0.25 h, pH 7.4
Experimental: Rat liver microsomes were isolated as described by Förlin (1980) Effects of Clophen A50, 3-methylcholantrene, pregnenolone-16aq-carbonitrile and Phenobarbital on the hepatic microsomal cytochrome P-450-dependent monooxygenaser system in rainbow trout, salmo garirdneri, of different age and sex. Tox Appl Pharm. 54(3) 420-430, with minor modifications e.g. 3 mL/g liver of a 0.1 M Na/K*PO4 buffer with 0.15 M KCl, pH 7.4, (buffer 1) was added before homogenisation, the homogenate was centrifuged for 20 minutes instead of 15, the supernatant was ultracentrifuged at 100.000 g instead of 105.000 g and the pellet from the ultracentrifugation was resuspended in 1 mL/g liver of 20% v/v 87% glycerol in buffer 1.
1 μL of, 0.2 or 1 mM test substance diluted in water and 10 μL 20 mg/mL rat liver micro-some were mixed with 149 μL 37° C. buffer 1 and the reaction was started by addition of 40 μL 4.1 mg/mL NADPH. After 0 or 15 minutes incubation at 37° C. in a heating block (LAB-LINE, MULTI-BLOK Heater or lab4you, TS-100 Thermo shaker at 700 rpm) the reaction was stopped by addition of 100 μL pure acetonitrile. The protein precipitation was then removed by rejecting the pellet after centrifugation at 10.000 g for 10 minutes (Heraeus, Biofuge fresco) in 4° C. The test compound was analysed using HPLC-MS (Hewlett-Packard 1100MSD Series) with a Zorbax SB-C18 column (2.1*150 mm, 5 μm) using 0.03% formic acid and acetonitrile as mobile phase (gradient) or a Zorbax Eclipse XDB-C18 (3*75 mm, 3.5 μm) using 0.03% acetic acid and acetonitrile as mobile phase (gradient). The 15 min turnover was calculated as the fraction of test compound eliminated after 15 minutes, expressed in percent of 0 min levels, ie 100*[conc test compound at 0 min−concentration at 15 min]/conc at 0 min.
Preparation of liver microsomes was performed as described in Förlin (1980). Protocols for incubation with liver microsomes are referred in Crespi et Stresser (2000), and Renwick et al (2001).

[3] = Oral bioavailability in rat; type: in vivo
Experimental: Experiments are performed 24 hours after implantation of arterial and venous catheters. Test compound is administered orally at 12.5 μmol/kg or intravenously at 5 μmol/kg using the venous catheters, n=3 per group. Arterial blood samples are then taken during […] at 0, 3, 9, 27, 60, 120, 180, 240, 300 and, 360 minutes after administration of the test compound. The oral bioavailability was calculated as the ratio of the AUC (Area under curve) obtained after oral administration over the AUC obtained after intravenous administration for each rat. The parameter AUC was calculated according to the following: AUC: the area under the plasma concentration versus time curve from time zero to the last concentration measured (Clast), calculated by the log/linear trapezoidal method.
The levels of test compound are measured by means of liquid chromatography-mass spectrometry (LC-MS). (Hewlett-Packard 1100MSD Series). The module include a quaternary pump system, vacuum degasser, thermostatted autosampler, thermostatted column compartment, diode array detector and API-ES spray chamber. […]
Extractions procedure: Plasma samples (0.25-0.5 ml) were diluted with water to 1 ml, and 60 pmol (100 μl) internal standard (−)-OSU6241 was added. […] The selective ion (MH^+) was monitored for each Example, and MH^+ 296 for (−)-OSU6241 ((3-[3-(ethylsulfonyl)phenyl]-1-propylpiperidine). […]

[4] = tested on: Locomotor activity in MK-801 pre-treated rats; assay: Locomotor activity in MK-801 pre-treated rats; settings: MK-801 0.7 mg/kg i.p. 90 minutes before test compound; 100 μmol/kg; recorded 30-60 minutes after administration

## CCCN1CCC(c2ccc(F)c(C(F)(F)F)c2)CC1
[1]; Rattus norvegicus
  ED50: 30 µmol/kg

## COc1cccc(C2(O)CCN(C)CC2)c1OC
[1]
  ED50 reduction of amphetamine-induced hyper-locomotion: inactive

## CCCN1CCC(O)(c2cccc(C(F)(F)F)c2F)CC1 [Example 1, 4-[2-FLUORO-3-(TRIFLUOROMETHYL)PHENYL]-1-PROPYLPIPERIDIN-4-OL]
[2]
  turnover at 15 minutes: 27%

## CCN1CCC(O)(c2cccc(C(F)(F)F)c2F)CC1 [Example 3, 4-[2-FLUORO-3-(TRIFLUOROMETHYL)PHENYL]-1-ETHYLPIPERIDIN-4-OL]
[2]
  turnover at 15 minutes: 8%
[3]; in vivo
  bioavailability: ~80%

## CCCN1CCC(O)(c2ccc(F)c(C(F)(F)F)c2)CC1 [Example 8, 4-[4-FLUORO-3-(TRIFLUOROMETHYL)PHENYL]-1-PROPYLPIPERIDIN-4-OL]
[2]
  turnover at 15 minutes: 29%
[3]; plasma, oral 12.5 μmol/kg vs i.v. 5 μmol/kg, AUC ratio, read-out: oral bioavailability
  bioavailability: ~29%

## CCCN1CCC(O)(c2cccc(S(C)(=O)=O)c2)CC1 [drawing 51]
[1]
  ED50 reduction of amphetamine-induced hyper-locomotion: inactive

## CCCN1CCC(O)(c2cccc(C(F)(F)F)c2F)CC1 [drawing 55]
[4]
  Locomotor activity, MK + example 100 μmol/kg: 17802 ± 6842 (P = 0.09) counts/30 min ± SEM

## CCN1CCC(O)(c2cccc(C(F)(F)F)c2F)CC1 [drawing 56]
[4]
  Locomotor activity, MK + example 100 μmol/kg: 18307 ± 7375 (P =0.3) counts/30 min ± SEM

## CCCN1CCC(O)(c2cccc(Cl)c2Cl)CC1 [drawing 57]
[4]
  Locomotor activity, MK + example 100 μmol/kg: 9564 ± 4584 (P =0.16) counts/30 min ± SEM

## CCCN1CCC(O)(c2ccc(F)c(C(F)(F)F)c2)CC1 [drawing 58]
[4]
  Locomotor activity, MK + example 100 μmol/kg: 7312 ± 4537 (P =0.0005) counts/30 min ± SEM

## COCCN1CCC(O)(c2ccc(Cl)c(C(F)(F)F)c2)CC1 [drawing 59]
[4]
  Locomotor activity, MK + example 100 μmol/kg: 7407 ± 3282 (P =0.00003) counts/30 min ± SEM
